Test results: patent US7452887B2, “Quinoline- and isoquinoline-based compounds exhibiting ATP-utilizing enzyme inhibitory activity, and compositions, and uses thereof” (Amphora Discovery Corporation, priority 2004, dated 2008)

What was measured:
[1] = target: T1, PRAK (Homo sapiens, UniProt Q8IW41); experiment: HTS ATP-utilizing enzyme assay, off-chip mobility-shift (Caliper HTS 250); format: biochemical; conditions: test compound 10 μM, kinase listed = active (greater than six-sigma from the mean activity of inactive compounds)
T1 sequence (Q8IW41 1-473): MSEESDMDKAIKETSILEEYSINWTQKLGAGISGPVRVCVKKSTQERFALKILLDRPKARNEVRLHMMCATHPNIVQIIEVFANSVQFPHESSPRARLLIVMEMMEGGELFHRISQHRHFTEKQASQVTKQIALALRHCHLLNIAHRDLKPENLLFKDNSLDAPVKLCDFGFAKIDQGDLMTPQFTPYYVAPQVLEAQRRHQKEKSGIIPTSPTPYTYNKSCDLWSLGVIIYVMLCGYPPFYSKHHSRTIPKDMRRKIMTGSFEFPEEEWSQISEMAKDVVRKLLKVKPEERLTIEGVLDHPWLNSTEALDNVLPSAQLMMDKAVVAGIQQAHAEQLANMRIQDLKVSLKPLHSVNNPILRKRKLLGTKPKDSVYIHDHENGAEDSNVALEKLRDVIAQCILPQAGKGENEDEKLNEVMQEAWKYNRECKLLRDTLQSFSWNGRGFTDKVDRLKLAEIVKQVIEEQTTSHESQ
Method in brief: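 The ratio of peptide substrate to phosphorylated product, measured by microfluidic mobility shift, gave percent inhibition. Reactions contained enzyme, peptide substrate and compound at 10 μM in HEPES pH 7.5 buffer, ran 2.5 hrs at 20° C. to 22° C., and were quenched with EDTA.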

[2] = target: MAPKAPK2 (Homo sapiens, UniProt P49137); experiment: as above; format: biochemical; conditions: test compound 10 μM, kinase listed = active (greater than six-sigma from the mean activity of inactive compounds)
Method in brief: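 Single-point screen of test compound at 10 μM against MAPKAPK2 with peptide substrate in HEPES pH 7.5 buffer (Triton X-100, BSA), 2.5 h at 20-22 °C. Substrate-to-phosphopeptide ratio was read by off-chip microfluidic mobility shift; EDTA and DMSO wells defined 100% and 0% controls, hits by six-sigma limits.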

Sequence of MAPKAPK2 (P49137 whole entry): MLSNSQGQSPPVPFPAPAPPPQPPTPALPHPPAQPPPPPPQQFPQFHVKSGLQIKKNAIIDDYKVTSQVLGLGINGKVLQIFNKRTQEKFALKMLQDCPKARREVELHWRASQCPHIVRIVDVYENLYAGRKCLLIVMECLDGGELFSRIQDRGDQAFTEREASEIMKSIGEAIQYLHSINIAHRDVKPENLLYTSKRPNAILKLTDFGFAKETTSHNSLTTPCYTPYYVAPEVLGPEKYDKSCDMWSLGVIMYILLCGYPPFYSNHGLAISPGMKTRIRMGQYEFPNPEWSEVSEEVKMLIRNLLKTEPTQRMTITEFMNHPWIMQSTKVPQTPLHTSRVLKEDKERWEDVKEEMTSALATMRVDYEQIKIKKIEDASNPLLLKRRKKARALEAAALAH

SMILES	Activity [1]	Activity [2]
CN1CCN(c2ccc(Nc3ccnc4ccc(-c5ccc(F)cc5)cc34)cc2)CC1 [6-(4-fluorophenyl)-N-(4-(4-methylpiperazin-1-yl)phenyl)quinolin-4-amine]	PRAK	MAPKAPK2
Cc1ccccc1-c1ccc2nccc(Nc3ccc(N4CCN(C)CC4)cc3)c2c1 [N-(4-(4-methylpiperazin-1-yl)phenyl)-6-o-tolylquinolin-4-amine]	PRAK	MAPKAPK2
COc1ccc(-c2ccc3nccc(N(C)c4ccc(N5CCN(C)CC5)cc4)c3c2)cc1 [6-(4-methoxyphenyl)-N-methyl-N-(4-(4-methylpiperazin-1-yl)phenyl)quinolin-4-amine]		MAPKAPK2
CN1CCN(c2ccc(Nc3ccnc4ccc(-c5cccc6ccccc56)cc34)cc2)CC1 [N-(4-(4-methylpiperazin-1-yl)phenyl)-6-(naphthalen-1-yl)quinolin-4-amine]	PRAK	MAPKAPK2
COc1ccc(-c2ccc3nccc(Nc4ccc(N5CCNCC5)cc4)c3c2)cc1 [6-(4-methoxyphenyl)-N-(4-(piperazin-1-yl)phenyl)quinolin-4-amine]	PRAK	MAPKAPK2
CN1CCN(c2ccc(Nc3ccnc4ccc(-c5ccc(O)cc5)cc34)cc2)CC1 [4-(4-(4-(4-methylpiperazin-1-yl)phenylamino)quinolin-6-yl)phenol]	PRAK	MAPKAPK2
CN1CCN(c2ccc(Nc3ccnc4ccc(-c5ccc6ccccc6c5)cc34)cc2)CC1 [N-(4-(4-methylpiperazin-1-yl)phenyl)-6-(naphthalen-2-yl)quinolin-4-amine]	PRAK	MAPKAPK2
CN1CCN(c2ccc(Nc3ccnc4ccc(-c5ccncc5)cc34)cc2)CC1 [N-(4-(4-methylpiperazin-1-yl)phenyl)-6-(pyridin-4-yl)quinolin-4-amine]	PRAK	
c1ccc(-c2ccc3nccc(Nc4ccc(N5CCNCC5)cc4)c3c2)cc1 [6-phenyl-N-(4-(piperazin-1-yl)phenyl)quinolin-4-amine]	PRAK	MAPKAPK2
